Key:
Assay in all cases: biochemical
Design in all cases: KINOMEscan scanMAX active site-directed competition binding assay, percent of control, 468 kinases
Conditions in all cases: competition binding, percent of control
[1] = target: BRAF (Homo sapiens, UniProt P15056)
Procedure, shortened: (§1)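 Single-concentration screen (100 μM S-carvone) in a competition binding panel of 468 human kinases (KINOMEscan scanMAX); results given as percent of control, hit cutoff 35%.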

[2] = target: BRSK1 (Homo sapiens, UniProt Q8TDC3)
Chain of BRSK1 (Q8TDC3 whole entry): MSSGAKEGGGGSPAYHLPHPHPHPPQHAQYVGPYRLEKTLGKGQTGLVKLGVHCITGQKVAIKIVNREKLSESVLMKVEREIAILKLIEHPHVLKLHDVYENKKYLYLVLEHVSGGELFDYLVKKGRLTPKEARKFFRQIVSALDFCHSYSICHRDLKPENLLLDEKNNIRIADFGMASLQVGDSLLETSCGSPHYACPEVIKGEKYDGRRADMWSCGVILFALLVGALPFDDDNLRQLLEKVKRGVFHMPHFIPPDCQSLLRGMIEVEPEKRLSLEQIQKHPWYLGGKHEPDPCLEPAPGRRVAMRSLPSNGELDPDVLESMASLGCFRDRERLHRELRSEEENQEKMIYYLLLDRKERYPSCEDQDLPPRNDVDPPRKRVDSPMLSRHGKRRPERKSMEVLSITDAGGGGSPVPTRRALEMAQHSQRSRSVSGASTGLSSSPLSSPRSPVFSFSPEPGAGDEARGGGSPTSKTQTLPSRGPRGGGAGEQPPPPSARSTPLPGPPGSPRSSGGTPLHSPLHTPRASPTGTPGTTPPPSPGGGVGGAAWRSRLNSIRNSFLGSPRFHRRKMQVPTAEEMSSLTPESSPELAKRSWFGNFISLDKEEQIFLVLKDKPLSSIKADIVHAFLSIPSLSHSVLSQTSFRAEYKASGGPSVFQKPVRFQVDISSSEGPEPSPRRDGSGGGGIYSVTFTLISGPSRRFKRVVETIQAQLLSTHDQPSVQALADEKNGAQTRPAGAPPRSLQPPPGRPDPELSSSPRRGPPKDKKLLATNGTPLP
Procedure, shortened: as §1

[3] = target: T1, CDC2L2 (Homo sapiens, UniProt Q9UQ88)
T1 construct: gene CDK11A
Procedure, shortened: as §1

[4] = target: CSNK1E (Homo sapiens, UniProt P49674)
Chain of CSNK1E (P49674 whole entry): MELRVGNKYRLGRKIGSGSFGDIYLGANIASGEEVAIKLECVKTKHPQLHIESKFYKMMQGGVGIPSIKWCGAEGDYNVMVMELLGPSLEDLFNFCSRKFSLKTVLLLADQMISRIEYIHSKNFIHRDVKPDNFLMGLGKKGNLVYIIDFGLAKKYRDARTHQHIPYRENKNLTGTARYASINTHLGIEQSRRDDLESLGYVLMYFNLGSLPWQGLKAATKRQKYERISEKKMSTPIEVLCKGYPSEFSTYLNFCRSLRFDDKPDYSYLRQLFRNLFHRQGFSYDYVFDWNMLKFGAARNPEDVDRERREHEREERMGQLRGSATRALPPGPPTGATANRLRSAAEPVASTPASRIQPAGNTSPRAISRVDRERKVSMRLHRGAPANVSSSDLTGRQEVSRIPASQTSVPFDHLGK
Procedure, shortened: as §1

[5] = target: ERBB2 (Homo sapiens, UniProt P04626)
Procedure, shortened: as §1

[6] = target: T2, FAK (Homo sapiens, UniProt Q05397)
T2 construct: gene PTK2
T2 sequence (Q05397 whole entry): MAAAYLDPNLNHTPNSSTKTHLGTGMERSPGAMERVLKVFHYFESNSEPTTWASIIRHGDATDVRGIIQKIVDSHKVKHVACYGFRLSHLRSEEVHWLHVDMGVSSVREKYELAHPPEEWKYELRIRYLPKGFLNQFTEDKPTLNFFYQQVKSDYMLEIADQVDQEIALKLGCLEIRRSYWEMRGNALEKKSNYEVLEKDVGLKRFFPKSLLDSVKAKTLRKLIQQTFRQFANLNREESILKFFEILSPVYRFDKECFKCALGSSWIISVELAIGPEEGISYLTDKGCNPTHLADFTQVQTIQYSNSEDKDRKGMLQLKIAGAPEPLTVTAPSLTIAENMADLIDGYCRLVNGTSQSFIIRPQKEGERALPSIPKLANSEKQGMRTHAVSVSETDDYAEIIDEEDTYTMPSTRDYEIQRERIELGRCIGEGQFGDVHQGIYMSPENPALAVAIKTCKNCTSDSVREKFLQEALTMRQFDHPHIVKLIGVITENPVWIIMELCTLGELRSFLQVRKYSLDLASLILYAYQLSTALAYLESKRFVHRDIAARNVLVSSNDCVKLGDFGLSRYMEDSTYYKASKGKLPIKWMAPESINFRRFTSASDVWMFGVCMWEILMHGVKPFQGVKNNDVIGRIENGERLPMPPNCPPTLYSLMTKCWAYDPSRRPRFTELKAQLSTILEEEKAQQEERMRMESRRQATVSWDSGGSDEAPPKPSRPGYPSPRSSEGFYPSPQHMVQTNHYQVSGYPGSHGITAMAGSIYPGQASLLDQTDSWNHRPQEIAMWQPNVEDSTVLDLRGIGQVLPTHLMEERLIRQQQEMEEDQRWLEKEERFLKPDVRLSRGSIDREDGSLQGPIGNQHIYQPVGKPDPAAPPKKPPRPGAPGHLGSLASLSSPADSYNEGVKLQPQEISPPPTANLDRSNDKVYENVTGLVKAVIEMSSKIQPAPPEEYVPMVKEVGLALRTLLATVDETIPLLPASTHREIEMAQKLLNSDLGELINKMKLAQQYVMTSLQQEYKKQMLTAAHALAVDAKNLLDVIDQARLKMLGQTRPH
Procedure, shortened: as §1

[7] = target: FES (Homo sapiens, UniProt P07332)
Chain of FES (P07332 whole entry): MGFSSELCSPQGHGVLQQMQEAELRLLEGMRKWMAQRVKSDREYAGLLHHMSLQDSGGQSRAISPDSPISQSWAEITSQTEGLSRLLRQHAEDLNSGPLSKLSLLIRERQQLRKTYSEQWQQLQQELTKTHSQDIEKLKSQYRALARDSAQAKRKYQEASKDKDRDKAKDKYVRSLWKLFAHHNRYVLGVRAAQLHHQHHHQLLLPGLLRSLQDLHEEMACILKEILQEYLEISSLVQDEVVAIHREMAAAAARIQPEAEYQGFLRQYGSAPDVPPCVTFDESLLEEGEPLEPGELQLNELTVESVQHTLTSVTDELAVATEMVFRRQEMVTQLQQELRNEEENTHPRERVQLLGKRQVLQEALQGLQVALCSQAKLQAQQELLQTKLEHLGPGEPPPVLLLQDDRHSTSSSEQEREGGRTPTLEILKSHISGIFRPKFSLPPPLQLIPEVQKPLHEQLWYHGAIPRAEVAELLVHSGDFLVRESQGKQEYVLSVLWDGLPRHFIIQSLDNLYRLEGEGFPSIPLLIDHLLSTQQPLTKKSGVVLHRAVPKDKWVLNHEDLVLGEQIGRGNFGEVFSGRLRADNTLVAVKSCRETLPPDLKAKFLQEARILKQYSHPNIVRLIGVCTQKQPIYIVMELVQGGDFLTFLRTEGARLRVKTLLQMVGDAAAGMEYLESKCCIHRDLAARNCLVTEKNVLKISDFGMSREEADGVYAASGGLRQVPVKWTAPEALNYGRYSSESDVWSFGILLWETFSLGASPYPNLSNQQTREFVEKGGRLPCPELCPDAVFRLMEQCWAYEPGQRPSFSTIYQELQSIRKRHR
Procedure, shortened: as §1

[8] = target: FLT1 (Homo sapiens, UniProt P17948)
Procedure, shortened: as §1

[9] = target: FLT3(K663Q) (Homo sapiens, UniProt P36888, K663Q)
Procedure, shortened: as §1

[10] = target: KIT(D816V) (Homo sapiens, UniProt P10721, D816V)
Procedure, shortened: as §1

[11] = target: MAK (Homo sapiens, UniProt P20794)
Chain of MAK (P20794 whole entry): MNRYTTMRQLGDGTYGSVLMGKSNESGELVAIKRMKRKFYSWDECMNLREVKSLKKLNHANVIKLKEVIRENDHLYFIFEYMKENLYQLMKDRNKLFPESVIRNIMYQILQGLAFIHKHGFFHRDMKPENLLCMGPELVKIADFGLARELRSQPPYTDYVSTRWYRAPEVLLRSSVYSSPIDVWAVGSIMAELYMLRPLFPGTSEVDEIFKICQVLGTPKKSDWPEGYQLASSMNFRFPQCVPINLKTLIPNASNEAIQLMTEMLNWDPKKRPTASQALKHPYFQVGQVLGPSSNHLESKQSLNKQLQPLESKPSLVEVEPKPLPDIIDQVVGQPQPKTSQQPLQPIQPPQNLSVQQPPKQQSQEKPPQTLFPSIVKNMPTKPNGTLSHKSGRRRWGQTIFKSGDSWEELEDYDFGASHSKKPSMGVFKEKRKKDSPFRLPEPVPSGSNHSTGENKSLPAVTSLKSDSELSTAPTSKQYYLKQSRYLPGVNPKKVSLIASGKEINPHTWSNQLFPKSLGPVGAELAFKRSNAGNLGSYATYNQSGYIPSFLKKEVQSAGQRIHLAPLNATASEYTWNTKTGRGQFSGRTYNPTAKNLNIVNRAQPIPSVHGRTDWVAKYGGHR
Procedure, shortened: as §1

[12] = target: MELK (Homo sapiens, UniProt Q14680)
Procedure, shortened: as §1

[13] = target: T3, OSR1 (Homo sapiens, UniProt O95747)
T3 construct: gene OXSR1
T3 sequence (O95747 whole entry): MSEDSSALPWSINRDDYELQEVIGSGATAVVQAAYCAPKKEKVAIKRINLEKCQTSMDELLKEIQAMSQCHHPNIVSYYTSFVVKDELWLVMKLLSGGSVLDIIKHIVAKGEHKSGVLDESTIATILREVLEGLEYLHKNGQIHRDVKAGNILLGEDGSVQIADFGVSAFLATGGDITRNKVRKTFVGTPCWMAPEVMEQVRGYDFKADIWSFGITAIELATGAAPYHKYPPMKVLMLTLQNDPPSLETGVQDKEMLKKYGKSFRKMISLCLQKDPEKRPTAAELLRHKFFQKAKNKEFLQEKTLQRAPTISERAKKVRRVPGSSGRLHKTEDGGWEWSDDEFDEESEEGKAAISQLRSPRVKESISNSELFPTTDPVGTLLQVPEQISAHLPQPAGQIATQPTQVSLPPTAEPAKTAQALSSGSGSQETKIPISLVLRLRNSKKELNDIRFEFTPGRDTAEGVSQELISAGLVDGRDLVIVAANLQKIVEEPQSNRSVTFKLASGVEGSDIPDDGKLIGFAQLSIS
Procedure, shortened: as §1

[14] = target: PIK3CA(I800L) (Homo sapiens, UniProt P42336, I800L)
Procedure, shortened: as §1

[15] = target: PIKFYVE (Homo sapiens, UniProt Q9Y2I7)
Procedure, shortened: as §1

[16] = target: PKMYT1 (Homo sapiens, UniProt Q99640)
Procedure, shortened: as §1

[17] = target: RIOK3 (Homo sapiens, UniProt O14730)
Procedure, shortened: as §1

[18] = target: T4, RSK3(Kin.Dom.2-C-terminal) (Homo sapiens, UniProt Q15349)
T4 construct: gene RPS6KA2; Kin.Dom.2-C-terminal
Procedure, shortened: as §1

[19] = target: T5, S6K1 (Homo sapiens, UniProt P23443)
T5 construct: gene RPS6KB1
Procedure, shortened: as §1

[20] = target: STK36 (Homo sapiens, UniProt Q9NRP7)
Procedure, shortened: as §1

[21] = target: TESK1 (Homo sapiens, UniProt Q15569)
Procedure, shortened: as §1

[22] = target: TLK2 (Homo sapiens, UniProt Q86UE8)
Chain of TLK2 (Q86UE8 whole entry): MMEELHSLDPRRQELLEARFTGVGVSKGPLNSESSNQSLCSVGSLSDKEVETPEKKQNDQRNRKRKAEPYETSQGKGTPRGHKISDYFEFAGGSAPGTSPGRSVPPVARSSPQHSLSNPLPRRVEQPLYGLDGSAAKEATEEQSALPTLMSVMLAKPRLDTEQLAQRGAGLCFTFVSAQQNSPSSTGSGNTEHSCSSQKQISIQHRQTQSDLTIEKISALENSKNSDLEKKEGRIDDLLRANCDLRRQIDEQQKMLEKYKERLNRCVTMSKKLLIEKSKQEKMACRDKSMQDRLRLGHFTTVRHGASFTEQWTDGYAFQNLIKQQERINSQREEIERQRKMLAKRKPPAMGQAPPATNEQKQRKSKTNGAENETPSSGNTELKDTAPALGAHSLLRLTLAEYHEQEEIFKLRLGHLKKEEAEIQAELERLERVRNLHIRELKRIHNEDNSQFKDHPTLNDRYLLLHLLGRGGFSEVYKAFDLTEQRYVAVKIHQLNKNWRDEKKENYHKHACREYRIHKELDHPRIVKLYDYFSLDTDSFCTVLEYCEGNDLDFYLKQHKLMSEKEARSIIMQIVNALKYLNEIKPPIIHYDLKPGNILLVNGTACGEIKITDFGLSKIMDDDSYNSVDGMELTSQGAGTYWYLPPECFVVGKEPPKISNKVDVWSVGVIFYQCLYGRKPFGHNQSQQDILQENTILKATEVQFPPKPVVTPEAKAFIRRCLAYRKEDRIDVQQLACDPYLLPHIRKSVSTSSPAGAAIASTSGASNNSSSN
Procedure, shortened: as §1

C=C(C)[C@H]1CC=C(C)C(=O)C1 [S-carvone]
remaining binding at 100 µM [1]: 83% | remaining binding at 100 µM [2]: 100% | remaining binding at 100 µM [3]: 82% | remaining binding at 100 µM [4]: 90% | remaining binding at 100 µM [5]: 83% | remaining binding at 100 µM [6]: 81% | remaining binding at 100 µM [7]: 69% | remaining binding at 100 µM [8]: 91% | remaining binding at 100 µM [9]: 95% | remaining binding at 100 µM [10]: 78% | remaining binding at 100 µM [11]: 73% | remaining binding at 100 µM [12]: 99% | remaining binding at 100 µM [13]: 78% | remaining binding at 100 µM [14]: 95% | remaining binding at 100 µM [15]: 100% | remaining binding at 100 µM [16]: 86% | remaining binding at 100 µM [17]: 89% | remaining binding at 100 µM [18]: 63% | remaining binding at 100 µM [19]: 93% | remaining binding at 100 µM [20]: 69% | remaining binding at 100 µM [21]: 79% | remaining binding at 100 µM [22]: 94%
